According to patent publication US20240131352A1, “NON-INVASIVE CANCER TREATMENT” (SCIENTIA BIOTECH S.L, priority 2021, published 2024):
Like-named read-outs stand apart in the source and are kept apart here. Marks after values point to notes of the source that are not given here.

Experiments:
[1] = test system: A2058 (melanoma, ATCC) cells
U87MG cells = settings: 240 min + HT 42° C. 10 min; for effect on viable U87MG cells of TTF+HT+PT: 20 μM pterostilbene minute 120 to 240 + TTF 300 kHz, 8 μT; for effect on cell viability for U87MG cells: 20 μM compound minute 210 to 240 + TTF 300 kHz, about 8 μT
Experimental: The hyperthermia applied was 42° C. for 10 minutes (from minute 120 to minute 130). 20 μM of pterostilbene was applied for 120 minutes (from minute 120 to minute 240). […] The magnetic field was applied using a solenoid with approximately 100 μT magnetic flux density at the central axis of the solenoid. The solenoid was placed at a distance from the cell cultures such that the average field strength on the surface of the culture flasks where the cells were attached was 8 μT.
FIGS. 15B to 15F show microscopic images of in vitro U87MG cell cultures after exposed to different external treatments.
The data are means with standard deviation for four independent experiments. Data labelled * indicates a P value (student's t test) less than 0.01 compared to the control. Data labelled + indicates a P value (student's t test) less than 0.01 compared to the TTF-only data. Data labelled # indicates a P value (student's t test) less than 0.01 compared to the TTF+HT data.

[2] = test system: AsPC1 (pancreatic adenocarcinoma, ATCC) cells; settings: for effect on viable AsPC1 cells of TTF+HT+GEM+PT: 25 μM gemcitabine + 20 μM pterostilbene minute 0 to 240 + TTF 200 kHz, 1.5 μT + HT 52° C. 20 min, all four in combination
[3] = test system: PC-3 (prostate carcinoma); experiment: heating + tumour treating fields + PT in vitro, PC-3; assay type: cell-based; settings: PC-3, in vitro
From the text: (§1) The effectiveness of therapy by heating in combination with tumour treating fields and exposure to PT is also observed in other cell lines in vitro, such as A2058 (melanoma), AsPC-1 (pancreas carcinoma), A549 (lung carcinoma), MCF-7 (mammary gland carcinoma), HT-29 (colorectal carcinoma), PC-3 (prostate carcinoma), SK-OV-3 (ovarian carcinoma and HepG2 (hepatocarcinoma).

GL261 = experiment: TTF+HT+PT therapy on glioblastoma line GL261; assay type: cell-based; settings: compared with U87MG
C6 = experiment: TTF+HT+PT therapy on glioblastoma line C6; assay type: cell-based; settings: compared with U87MG
[4] = test system: HT-29 (colorectal carcinoma); experiment: heating + tumour treating fields + PT in vitro, HT-29; assay type: cell-based; settings: HT-29, in vitro
From the text: as §1

HepG2 (hepatocarcinoma) = experiment: heating + tumour treating fields + PT in vitro, HepG2; assay type: cell-based
From the text: as §1

A549 (lung carcinoma) = experiment: heating + tumour treating fields + PT in vitro, A549; assay type: cell-based
From the text: as §1

[5] = test system: SK-OV-3 (ovarian carcinoma); experiment: heating + tumour treating fields + PT in vitro, SK-OV-3; assay type: cell-based; settings: SK-OV-3, in vitro
From the text: as §1

[6] = test system: MCF-7 (mammary gland carcinoma); experiment: heating + tumour treating fields + PT in vitro, MCF-7; assay type: cell-based; settings: MCF-7, in vitro
From the text: as §1

[7] = test system: GSH in AsPC1 (Pancreatic adenocarcinoma) cells; experiment: GSH content of AsPC1 cells in vitro (GSH depletion); assay type: cell-based
GSH in U87 (GBM) cells = experiment: GSH content of U87MG cells in vitro (GSH depletion); assay type: cell-based
[8] = test system: GSH in A2058 (melanoma) cells; experiment: GSH content of A2058 cells in vitro (GSH depletion); assay type: cell-based
[9] = 1 mM BSO + TTF (200 kHz, 1.5 μT, 240 min) + HT (52° C., 20 min) applied 24 hours after seeding
[10] = 1 mM BSO added at seeding, BSO alone, mean ± SD, five experiments

Question: For `CC(=O)O[C@H]1C(=O)[C@@]2(C)[C@H]([C@H](OC(=O)c3ccccc3)[C@]3(O)C[C@H](OC(=O)[C@H](O)[C@@H](NC(=O)c4ccccc4)c4ccccc4)C(C)=C1C3(C)C)[C@]1(OC(C)=O)CO[C@@H]1C[C@@H]2O` [PAC, (2α,4α,5β,7β,10β,13α)-4,10-Bis(acetyloxy)-13-{[(2R,3 S)-3(benzoylamino)-2-hydroxy-3-phenylpropanoyl]oxy}-1,7-dihydroxy-9-oxo-5,20-epoxytax-11-en-2-yl benzoate], which “effect on viable A2058 cells of TTF+HT+PAC” value ([1]; 10 μM paclitaxel minute 0 to 240 + TTF 200 kHz, 1.5 μT + HT 52° C. 20 min) is on record?
Answer: eliminated the cells

Question: Which “effect on viable U87MG cells of TTF+HT+PT” value (U87MG cells) does the source give for `COc1cc(/C=C/c2ccc(O)cc2)cc(OC)c1` [pterostilbene, trans-3,5-dimethoxy-4′-hydroxystilbene] here?
Answer: effectively eliminates all cells in vitro

Question: What about the “effect on viable U87MG cells of TTF+HT+PT” value (U87MG cells; listed as PT) of the same molecule?
Answer: completely eliminates all U87MG growing cells

Question: And the “effect on viable AsPC1 cells of TTF+HT+GEM+PT” value [2]?
Answer: eliminated the AsPC1 cells

Question: And the “effectiveness of therapy by heating in combination with tumour treating fields and exposure to PT” value (“effectiveness of therapy by heating” for short) ([2]; AsPC-1 (pancreas carcinoma), in vitro)?
Answer: also observed

Question: What about the “effectiveness of therapy by heating” value [3] of the same molecule?
Answer: also observed

Question: And the “effectiveness of TTF+HT+PT therapy” value (GL261)?
Answer: same effectiveness

Question: And the “effectiveness of TTF+HT+PT therapy” value (C6)?
Answer: same effectiveness

Question: What about the “effect on viability of A2058 cells of TTF+HT+PT” value ([1]; 20 μM pterostilbene minute 0 to 240 + TTF 200 kHz, 1.5 μT + HT 52° C. 20 min, compared to TTF+HT) of the same molecule?
Answer: significantly reduced the viability of the cells

Question: And the “effectiveness of therapy by heating” value ([1]; A2058 (melanoma), in vitro)?
Answer: also observed

Question: What about the “effectiveness of therapy by heating” value [4] of the same molecule?
Answer: also observed

Question: What about the “effectiveness of therapy by heating” value (HepG2 (hepatocarcinoma)) of the same molecule?
Answer: also observed

Question: And the “effectiveness of therapy by heating” value (A549 (lung carcinoma))?
Answer: also observed

Question: And the “effectiveness of therapy by heating” value [5]?
Answer: also observed

Question: And the “effectiveness of therapy by heating” value [6]?
Answer: also observed

Question: Buthionine sulfoximine [BSO] was tested. Which GSH [7, 9] did it give?
Answer: 2.49 ± 0.66*^+ nmol/10^6 cells

Question: And the GSH [7, 10]?
Answer: 3.14 ± 0.79 nmol/10^6 cells

Question: And the GSH (GSH in U87 (GBM) cells; 1 mM BSO + TTF (200 kHz, 1.5 μT, 240 min) + HT (42 °C, 20 min) applied 24 hours after seeding)?
Answer: 1.92 ± 0.59*^+ nmol/10^6 cells

Question: And the GSH (GSH in U87 (GBM) cells; [10])?
Answer: 2.10 ± 0.70 nmol/10^6 cells

Question: What about the GSH [8, 9] of the same molecule?
Answer: 2.06 ± 0.51*^+ nmol/10^6 cells

Question: What about the GSH [8, 10] of the same molecule?
Answer: 2.24 ± 0.82 nmol/10^6 cells

Question: How did the “effect on cell viability for U87MG cells” value (U87MG cells) turn out when `OC[C@H]1O[C@@H](Oc2cc(O)cc(/C=C/c3ccc(O)cc3)c2)[C@H](O)[C@@H](O)[C@@H]1O` [G-diOH-s, 3-glucoside-5,4′-dihydroxystilbene] was run?
Answer: significant reduction in cell viability

Question: With `Oc1ccc(C=Cc2cc(O)cc(O)c2)cc1` [resveratrol] as the molecule, how does the “effect on cell viability for U87MG cells” value (U87MG cells) read?
Answer: do not eliminate all U87MG cell growing in vitro

Question: `Nc1ccn([C@@H]2O[C@H](CO)[C@@H](O)C2(F)F)c(=O)n1` [GEM, gemcitabine] was tested. Which “effect on viable AsPC1 cells of TTF+HT+GEM+PT” value [2] did it give?
Answer: eliminated the AsPC1 cells
